{"source": "patent US11071790B2", "about": "“Method for efficient delivery of therapeutic molecules in vitro and in vivo” (Massachusetts Eye and Ear Infirmary, priority 2014, dated 2021)", "key": {"[1]": {"test_system": "BSR.LNL.tdTomato cells", "test": "Cre delivery assay of recombinant fusion proteins (flow cytometry)", "type": "cell-based, hamster", "conditions": "250 nM, fused to +36 GFP-Cre", "experimental": "(§1) FIGS. 15A, 15B are graphs showing the efficacy and toxicity of recombinant expression fusions of aurein 1.2 (“E”) and citropin 1.3 (“U”). […] The percentage of tdTomato positive cells was determined by flow cytometry. Protein fusions were delivered at 125 nM, 250 nM, 500 nM, and 1 μM. […] Protein fusions were delivered at 125 nM, 250 nM, 500 nM, and 1 μM. […] Cells were treated with 250 nM protein for 4 h in serum-free media. Cells were washed and supplanted with full DMEM and incubated for 48 h. Error bars represent the standard deviation of three independent biological replicates.\nThe percentage of tdTomato positive cells was determined by flow cytometry. […] Cells were washed and supplanted with full DMEM and incubated for 48 h.\n(§2) Uptake and delivery assays for Cre fusion proteins were performed as previously described (Cronican, J. J.; et al. ACS Chemical Biology 2010, 5, 747). Briefly, proteins were diluted in serum-free DMEM and incubated on the cells in 48-well plates for 4 h at 37° C. Following incubation, the cells were washed three times with PBS+20 U/mL heparin. The cells were incubated a further 48 h in serum-containing media prior to trypsinization and analysis by flow cytometry. […] Toxicity for alanine scan mutational analysis was determined with LIVE/DEAD fixable far-red dead cell stain (Life Technologies) with 635 nm laser and 670/30 nm filter."}, "[2]": {"test_system": "cochlear hair cells and supporting cells of Rosa-tdTomato f/f mouse", "test": "Cre delivery into Rosa-tdTomato mouse cochlea in vivo (tdT labeling)", "conditions": "for tdT-labeled hair cells: near the injection site (base turn of cochlea)", "experimental": "FIGS. 10A and 10B show the in vivo delivery of Cre recombinase to hair cells in the mouse inner ear. FIG. 10A: The scala media (cochlear duct) of P0 floxP-tdTomato mice (n=4) were injected with 0.3 μL of 23 μM (−30)GFP-Cre in 50% RNAiMAX or with RNAiMAX alone (control). […] Red=tdTomato; green=Myo7a; white=Sox2; blue=DAPI. Yellow brackets indicate the outer hair cell (OHC) region. […] Red=tdTomato; green=Esp, white=Sox2; blue=DAPI, Scale bars: 10 μm.\nFIGS. 11A-11E show the high efficiency of protein delivery mediated by aurein in the inner ear in vivo. […] FIG. 11E: In Opti-MEM injected control mice no tdT labeling was detected in any inner ear cells. Scale bars: 10 μm.\nThe use of (−30)-GFP protein and a new positively charged (+36)-GFP protein to carry Cre, (−30)-GFP-Cre and (+36)-GFP-Cre, was tested for injection into mouse cochlea in vivo. The mouse used was Rosa-tdTomato^f/f in which functional Cre activity in the nuclei results in cells being labeled with tdT (red). It was shown that both (−30)-GFP-Cre and (+36)-GFP-Cre injections led to tdT expression in the cochlear hair cells.\nIt was next tested whether Aurein, an antimicrobial peptide, in combination with s-GFP, can serve as an effective carrier to deliver functional proteins into mouse inner ear cell types with high efficiency. (+36)-GFP-aurein-Cre was injected with different concentrations into P3 Rosa-tdT mouse inner ear by cochleostomy in vivo. The tissues were harvested 5 days later for immunolabeling to identify tdT^+ inner ear cell types. […] At 22.5 μM, 58% of OHC and 75% of IHC, as well as 8% of SC were tdT^+. At the highest 50 μM, 96% of OHC, 88% of IHC and 19% of SC were tdT^+. Some spiral ganglion neurons were also tdT^+ at 22.5 and 50 μM (FIGS. 11A-11E and FIG. 12)."}, "[3]": {"test_system": "BSR.LNL.tdTomato cells", "test": "ATP-dependent cell viability assay (CELLTITER-GLO)", "conditions": "1 μM, 48 h after treatment", "experimental": "as §1, §2\nNext, the toxicity of each fusion protein was evaluated at a range of concentrations (125 nM to 1 μM) using an ATP-dependent cell viability assay at 48 h after treatment."}, "[4]": {"test_system": "BSR.LNL.tdTomato cells", "test": "primary screen for cytosolic delivery of Cre recombinase (fluorescence image analysis)", "type": "cell-based, hamster", "experimental": "Initial screen of 20 peptide-(+36 GFP)-Cre conjugated proteins. Cytosolic Cre delivery results in recombination and tdTomato expression. The percentage of tdTomato positive cells was determined by fluorescence image analysis. […] Cells were washed and supplanted with full DMEM and incubated for 48 h. Error bars represent the standard deviation of three independent biological replicates.\nBSR.LNL.tdTomato cells were plated at 10,000 cells per well in black 384-well plates (Aurora Biotechnologies). […] Following incubation, the cells were washed three times with PBS+20 U/mL heparin. The cells were incubated a further 48 h in serum-containing media. Cells were fixed in 3% paraformaldehyde and stained with Hoescht 33342 nuclear dye. Images were acquired on an ImageXpress Micro automated microscope (Molecular Devices) using a 4× objective (binning 2, gain 2), with laser- and image-based focusing (offset −130 μm, range ±50 μm, step 25 μm). Images were exposed for 10 ms in the DAPI channel (Hoechst) and 500 ms in the dsRed channel (tdTomato). Image analysis was performed using the cell-scoring module of MetaXpress software (Molecular Devices). All nuclei were detected with a minimum width of 1 pixel, maximum width of 3 pixels, and an intensity of 200 gray levels above background. […] In total, nine images were captured and analyzed per well, and 16 wells were treated with the same fusion protein. The primary screen was completed in biological triplicate.\nBecause Cre recombinase must enter the cell, escape endosomes, enter the nucleus, and catalyze recombination to generate tdTomato fluorescence, this assay reflects the availability of active, non-endosomal recombinase enzyme that reaches the nucleus.\nThe reporter BSR.LNL.tdTomato cells were incubated with 250 nM of each peptide-(+36 GFP)-Cre protein in serum-free media."}, "[5]": {"test_system": "cochlear hair cells of Rosa26-tdTomato mice", "test": "in vivo delivery of Cre recombinase into mouse neonatal cochlea (tdTomato recombination)", "experimental": "0.4 μL of 50 μM+36 GFP-Cre or aurein 1.2-+36 GFP-Cre were injected into the scala media. […] Inner hair cells (IHC), outer hair cells (OHC) and supporting cells in the sensory epithelium (SE) were imaged for the presence of tdTomato, which is only expressed following Cre-mediated recombination. Hair cells were labeled with antibodies against the hair-cell marker Myo7a.\nP1-2 Gt(ROSA)26Sor^tm14(CAG-tdTomato)Hze mice were used for aurein 1.2-+36-GFP-Cre and +36-GFP-Cre injection. The Rosa26-tdTomato mice were from the Jackson Laboratory. […] Mice were anesthetized by hypothermia on ice. Cochleostomies were performed by making an incision behind the ear to expose the cochlea. Glass micropipettes held by a micromanipulator were used to deliver the complex into the scala media, which allows access to inner ear hair cells. […]\nTo quantify the number of tdTomato positive cells after aurein 1.2-+36-GFP-Cre and +36-GFP-Cre, we counted the total number of inner and outer hair cells in a region spanning 100 μm in the apex, middle, and base turn of the cochlea.\nAnesthetized postnatal day 2 (P2) mice were injected with 0.4 μL of 50 μM+36 GFP-Cre or aurein 1.2-+36 GFP-Cre solutions in the scala media to access the cochlear cells. […] Both the hair cells (Myo7a+) and supporting cells (Myo7a−) were evaluated for td Tomato signal."}, "[6]": {"test_system": "glucocorticoid receptor (GR-mCherry) in HeLa cells", "test": "GR-mCherry translocation assay", "type": "cell-based", "conditions": "1 μM, 30 min", "experimental": "One day prior to transfection 10,000 HeLa cells in 200 μL of DMEM (10% FBS, 1× Pen-Strep) were plated into single wells of a 96-well MATRICAL glass bottom microplate (MGB096-1-2-LG-L) and allowed to adhere overnight. The following day, cells were transfected with GRmCherry using LIPOFECTAMINE® 2000 technologies. Following transfection, cells were allowed to recover overnight in DMEM (+10% FBS). The following day, cells were treated with dexamethasone (Dex) or 1 μM Dex-protein conjugate in the presence or absence of inhibitor diluted into DMEM (without phenol red, +300 nM Hoescht33342). After 30 min, cells were washed twice with 200 μL of HEPES-Krebs-Ringer's (HKR) buffer (140 mM NaCl, 2 mM KCl, 1 mM CaCl2, 1 mM MgCl2, and 10 mM HEPES at pH 7.4), after which 100 μL of HKR buffer was overlaid onto the cells and images were acquired on a Zeiss Axiovert 200M epifluorescence microscope outfitted with Ziess AxiocammRM camera and an EXFO-Excite series 120 Hg arc lamp. The translocation ratio (the ratio of median […] intensity in the nuclear and surrounding regions) for individual cells was measured using CELLPROFILER® as described 36. […]\nAlthough endosomal escape is widely considered to be the major bottleneck of cationic protein delivery (Sahay, G.; et al. Nature Biotechnology 2013, 31, 653), few assays quantify the ability of proteins to escape endosomes on a single-cell basis."}}, "note": "No end group written: not given here.", "data": [{"substance": "GLFDIIKRIAESF [K8R]", "values": [{"measurement": "overall recombination efficiency of aurein 1.2 variants", "setting": "[1]", "result": "potentially improved overall recombination efficiency"}]}, {"substance": "(−30)-GFP-Cre: negatively supercharged GFP fused to Cre recombinase, SEQ ID NO: 4", "values": [{"measurement": "tdT-labeled hair cells", "setting": "[2]", "result": "~30", "unit": "%"}, {"measurement": "stereocilia of tdTomato-positive outer hair cells", "setting": "[2]; ten days after delivery, 23 μM in 50% RNAiMAX", "result": "intact espin (Esp)-expressing stereocilia of tdTomato-positive outer hair cells were present"}]}, {"substance": "+36 GFP-Cre: superpositively charged GFP fused to Cre recombinase, SEQ ID NO: 1", "values": [{"measurement": "tdT labeling of cochlear cells", "setting": "[2]; 50 μM", "result": "very few IHC and HC were labeled with tdT"}, {"measurement": "tdT-labeled hair cells", "setting": "[2]", "result": "~30", "unit": "%"}, {"measurement": "viable cells", "setting": "[3]", "result": 85, "unit": "%"}, {"measurement": "recombined cells", "setting": "[4]; 250 nM protein with 100 μM chloroquine (positive control)", "result": 48, "unit": "%"}, {"measurement": "cells expressing tdTomato (recombined cells)", "setting": "[4]; 250 nM protein, 4 h serum-free, 48 h", "result": 4.5, "unit": "%"}, {"measurement": "Cre-mediated recombination in inner hair cells (IHC)", "setting": "[5]; apex, 50 μM", "result": 4.4, "unit": "%"}]}, {"substance": "GLFDIIKKIAESF (listed as Litoria aurea) [aurein 1.2]", "values": [{"measurement": "potency of Cre delivery into cochlear hair cells when fused with aurein 1.2 versus absence of the peptide", "setting": "[5]; live mice", "result": "> 20", "unit": "fold"}]}, {"substance": "GLFDIIKKIAEAF [S12A]", "values": [{"measurement": "overall recombination efficiency of aurein 1.2 variants", "setting": "[1]", "result": "potentially improved overall recombination efficiency"}]}, {"substance": "GLFDIIKKVASVIGGL [citropin 1.3]", "values": [{"measurement": "level of recombination in the primary screen", "setting": "[4]; 250 nM sortase conjugate of +36 GFP-Cre", "result": "moderate level of recombination"}]}, {"substance": "Arg8^Dex: dexamethasone-labeled canonical cell permeable peptide Arg8, SEQ ID NO: 102 (RRRRRRRR; also: dexamethasone label, site not given here)", "values": [{"measurement": "nuclear-to-cytoplasm translocation ratio (TR)", "setting": "[6]", "result": 1.63}]}]}
